Measurements as given in patent US10897891B2, “Compositions and methods for prolonged cell storage” (Board of Regents, The University of Texas System, priority 2015, dated 2021).
“Also recorded” adds a separate entry of the source.

Columns and labels:
platelets = assay: Cholesterol membrane capping with the fluorescent cholesterol probe filipin (Experiment F); assay type: cell-based, human; settings: 5° C. overnight
Experimental: (Note 1: Stock solutions were prepared in DMSO that was rigorously dried with an equal volume of A-3 molecular sieve that had been regenerated at 300° C. overnight. The resultant filipin stock 25 mg/ml DMSO solution was prepared in a nitrogen atmosphere and frozen at −70° C. to limit water induced hydrolysis.)
Approximately 3 ml of residual pooled platelets were obtained after 72 hr at standard storage conditions. 100 ul of platelets were mixed with 100 ul of fresh filipin (300 ug/ml in PBS+10%, DMSO) in each of 12 wells of a 24 well cluster plate and incubated at room temperature for 35 min. (DMSO was included to assist with membrane loading of the highly insoluble filipin molecule.) All wells were then diluted by adding 2.5 ml of PBS and incubated another 15 min to dilute unbound filipin and allow removal of DMSO by dilution. The plate was next centrifuged at 2500 g for 20 min in a pre-warmed centrifuge at 22° C. All wells were gently aspirated and the PBS was replaced with 3 ml of control or test platelets as follows:
All wells were next incubated 20 min at room temperature to allow DMSO to equilibrate. (Note: the final DMSO concentration in the Control wells or the PEG-400 only wells would be 6 parts in 10,000 or 0.06%.) Next the plate was held at 5° C. overnight and in the morning centrifuged in a 5° C. equilibrated centrifuge at 2,500 g for 20 min. Cold 4% Formalin/PBS was carefully added and the plate returned to 5° C. for overnight incubation. At 18 hr the plate was allowed to fix again at room temperature in the dark for 4 hours. Subsequently the formalin was aspirated and the plate washed with 4 changes of 2 ml of PBS. Finally, excess fluid was removed and the wells were photographed with an inverted fluorescent microscope. Note 2: Filipin is rapidly photo-bleached with the UV, thus the light intensity was lowered with a barrier filter of ˜20% was used. This filter setting was used consistently for all photographs. All photographs were taken under the same camera conditions. No post photographic image alterations were made. […]

[1] = test system: macrophage like cell line U937; assay: Platelet binding to the macrophage like cell line U937 (Experiment E); assay type: cell-based, human; settings: 2% PEG-400, 5° C. overnight
Experimental: U937 is a cell line derived from a patient with Acute Myelo-Monocytic Leukemia. […] In this binding experiment 5 day old platelets from the blood bank are held in a standard storage media referred to as ACD on a flat-bed shaker under standard conditions of rotation. ‘ACD’ contains […], Sodium Citrate, and Dextrose. These platelets were split into two conditions, control and 2%/0 PEG-400, in a 12 well plate format with a final volume of 100 ul per well. All wells were incubated overnight at 5° C. All wells where then stained with fluorescein Diacetate (Sigma product F7378). This agent was protected from light and 1 mg was dissolved in 10 ml acetone and stored at −70° C. FDA was diluted […] in PBS immediately prior to use (Miyamoto el al., 2000.) All platelet wells received 2.5 ug final per well of fluorescein diacetate (FA) contained in 50 ul PBS. After 1 hr at room temp a further 100 ul of PBS was added and the 12 well plates were centrifuged at 3000 g for 20 min at RT. 150 ul excess fluid was carefully removed from all wells and discarded. Platelets were gently suspended. […] Wells were examined and photographed with an inverted fluorescence microscope. […]
Control conditions had standard 75 ul of ACD suspended platelets, plus 25 μl PBS in the control wells. […] Wells were examined with an inverted fluorescence microscope.

[2] = primates, for 11 weeks; cited from earlier work

Polyethylene glycol [PEG-400]
filipin clustering / cholesterol capping vs PBS control (platelets; 2% PEG-400 in PBS): less filipin clustering; also recorded: less cholesterol capping | filipin clustering / cholesterol capping vs PBS control (platelets; 4% PEG-400 in PBS): less cholesterol capping | filipin clustering / cholesterol capping vs PBS control (platelets; 4% PEG-400 in PBS, listed as PEG): less filipin clustering | adsorption of cold stored platelets to U937 cells [1]: substantially block adsorption of cold stored platelets to macrophage like cells | adsorption of cold stored platelets to U937 cells ([1]; listed as PEG): only a few attached strongly fluorescent platelets | tolerated level [2]: 0.4 % of body weight
